This is an account of results in ChEMBL document CHEMBL5678807, “A selective jumonji H3K27 demethylase inhibitor modulates the proinflammatory macrophage response” (Nature, 2012).

Data set [1] deals with Lysine-specific demethylase 4C (Homo sapiens, UniProt Q9H3R0). Briefly: Inhibition of human JmjD2c using H3K27(me3) as substrate preincubated for 10 mins followed by substrate addition and measured after 7 mins in presence of alpha-KG by RapidFire Mass Spectrometry.
For data set [2], the target named is T1, Lysine-specific demethylase 4A (Homo sapiens, UniProt O75164). Briefly: Inhibition of human JmjD2a using H3K27(me3) as substrate preincubated for 10 mins followed by substrate addition and measured after 7 mins in presence of alpha-KG by RapidFire Mass Spectrometry.
Data set [3] concerns the target Lysine-specific demethylase 6A (Homo sapiens, UniProt O15550). Briefly: Inhibition of human UTX using Biotin-KAPRKQLATKAARK(me3)SAPATGG as substrate by MALDI-TOF analysis.
In data set [4] the target is 5-hydroxytryptamine receptor 2A (Homo sapiens, UniProt P28223). Briefly: Agonist activity at human 5-HT2A by intracellular Ca luminescence assay. The class given is functional, cell-based.
Data set [5] has as its target T1, Lysine-specific demethylase 4A. In words: Inhibition of human JmjD2a by Alphascreen assay.
Data set [6] addresses Lysine-specific demethylase 5C (Homo sapiens, UniProt P41229). In words: Inhibition of human Jarid1c by MALDI-TOF analysis.
Data set [7] can be described thus: Drug uptake in human primary macrophage lysates at 30 uM measured after 1 hr by RP LC-MS/MS analysis. In kind it is ADME, subcellular.
Data set [8] deals with Macrophage. Briefly: Antiinflammatory activity in human primary macrophages assessed as effect on LPS-induced IL1F9 gene expression at 30 uM measured after 2 hrs by RT-PCR array (reference value: 5170 a.u.). The class given is functional.
Data set [9] is described as follows: Prodrug conversion in human primary macrophage lysates assessed as formation of GSK-J2 at 30 uM measured after 1 hr by RP LC-MS/MS analysis. The class given is ADME, subcellular.
For data set [10], the system named is Macrophage. In words: Antiinflammatory activity in human primary macrophages assessed as effect on LPS-induced TNFSF8 gene expression at 30 uM measured after 2 hrs by RT-PCR array (reference value: 248127 a.u.). The class given is functional.
Data set [11] deals with Macrophage. Briefly: Antiinflammatory activity in human primary macrophages assessed as effect on LPS-induced TGFB1 gene expression at 30 uM measured after 2 hrs by RT-PCR array (reference value: 72816 a.u.). In kind it is functional.
Data set [12] deals with Macrophage. Briefly: Antiinflammatory activity in human primary macrophages assessed as effect on LPS-induced GDF9 gene expression at 30 uM measured after 2 hrs by RT-PCR array (reference value: 113 a.u.). The class given is functional.
Data set [13] in a line: Prodrug conversion in human primary macrophage lysates assessed as formation of GSK-J1 at 30 uM measured after 1 hr by RP LC-MS/MS analysis. The class given is ADME, subcellular.
The target of data set [14] is Lysine-specific demethylase 4E (Homo sapiens, UniProt B2RXH2). In words: Inhibition of human JmjD2e using H3K27(me3) as substrate preincubated for 10 mins followed by substrate addition and measured after 7 mins in presence of alpha-KG by RapidFire Mass Spectrometry.
Chain of Lysine-specific demethylase 4E (B2RXH2 whole entry): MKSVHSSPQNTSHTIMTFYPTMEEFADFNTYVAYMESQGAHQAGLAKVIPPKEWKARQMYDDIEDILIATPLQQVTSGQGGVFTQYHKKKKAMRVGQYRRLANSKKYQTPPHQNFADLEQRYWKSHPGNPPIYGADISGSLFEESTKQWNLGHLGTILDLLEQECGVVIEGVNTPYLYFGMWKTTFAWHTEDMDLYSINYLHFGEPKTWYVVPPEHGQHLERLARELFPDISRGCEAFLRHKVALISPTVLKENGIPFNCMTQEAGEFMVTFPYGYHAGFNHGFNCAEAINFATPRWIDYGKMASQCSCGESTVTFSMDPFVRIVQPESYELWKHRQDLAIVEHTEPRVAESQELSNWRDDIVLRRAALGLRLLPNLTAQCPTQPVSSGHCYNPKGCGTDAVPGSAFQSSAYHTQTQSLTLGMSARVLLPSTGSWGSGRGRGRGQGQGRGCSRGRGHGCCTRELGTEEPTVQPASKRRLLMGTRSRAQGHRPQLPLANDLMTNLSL

Chain of 5-hydroxytryptamine receptor 2A (P28223 whole entry): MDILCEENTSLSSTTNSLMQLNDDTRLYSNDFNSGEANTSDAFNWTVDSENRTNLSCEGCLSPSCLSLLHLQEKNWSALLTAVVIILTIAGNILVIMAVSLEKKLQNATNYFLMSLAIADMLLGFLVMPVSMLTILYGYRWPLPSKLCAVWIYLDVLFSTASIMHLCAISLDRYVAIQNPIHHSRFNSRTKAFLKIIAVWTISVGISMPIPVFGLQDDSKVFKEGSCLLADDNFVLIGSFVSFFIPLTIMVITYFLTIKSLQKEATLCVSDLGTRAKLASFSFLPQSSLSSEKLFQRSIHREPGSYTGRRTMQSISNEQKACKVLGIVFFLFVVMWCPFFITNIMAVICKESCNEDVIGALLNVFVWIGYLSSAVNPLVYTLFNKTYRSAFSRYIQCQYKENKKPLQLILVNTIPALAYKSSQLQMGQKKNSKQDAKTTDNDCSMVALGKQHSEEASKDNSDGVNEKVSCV
T1 sequence (O75164 whole entry): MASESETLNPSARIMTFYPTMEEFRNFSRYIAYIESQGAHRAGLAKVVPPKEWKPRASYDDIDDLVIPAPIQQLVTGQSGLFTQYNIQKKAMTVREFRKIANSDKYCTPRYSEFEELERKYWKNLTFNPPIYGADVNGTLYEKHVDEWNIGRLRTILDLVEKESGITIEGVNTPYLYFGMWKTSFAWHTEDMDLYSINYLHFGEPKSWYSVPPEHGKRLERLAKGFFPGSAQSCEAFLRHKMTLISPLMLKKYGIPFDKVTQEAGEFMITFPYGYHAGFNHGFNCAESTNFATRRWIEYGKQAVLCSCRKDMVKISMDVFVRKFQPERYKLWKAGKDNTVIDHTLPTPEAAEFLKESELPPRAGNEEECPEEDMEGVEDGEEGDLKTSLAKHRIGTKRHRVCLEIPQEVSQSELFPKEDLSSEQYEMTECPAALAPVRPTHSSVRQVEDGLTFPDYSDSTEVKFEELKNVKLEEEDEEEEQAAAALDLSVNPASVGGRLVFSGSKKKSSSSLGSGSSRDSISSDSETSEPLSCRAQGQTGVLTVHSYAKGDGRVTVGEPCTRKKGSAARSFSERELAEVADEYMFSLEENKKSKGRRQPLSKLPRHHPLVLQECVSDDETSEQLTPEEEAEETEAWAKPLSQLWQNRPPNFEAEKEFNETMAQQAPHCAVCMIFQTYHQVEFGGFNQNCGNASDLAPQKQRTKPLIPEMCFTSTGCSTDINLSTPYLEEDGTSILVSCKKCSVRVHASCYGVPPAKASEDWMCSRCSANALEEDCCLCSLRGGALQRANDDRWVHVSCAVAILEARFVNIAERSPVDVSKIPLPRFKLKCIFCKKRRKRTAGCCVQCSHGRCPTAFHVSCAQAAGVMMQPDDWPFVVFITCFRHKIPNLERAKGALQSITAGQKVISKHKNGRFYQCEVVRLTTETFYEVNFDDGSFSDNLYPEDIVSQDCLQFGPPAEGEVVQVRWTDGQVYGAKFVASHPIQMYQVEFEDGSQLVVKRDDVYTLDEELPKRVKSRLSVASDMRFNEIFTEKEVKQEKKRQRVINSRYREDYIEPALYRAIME
Chain of Lysine-specific demethylase 4C (Q9H3R0 whole entry): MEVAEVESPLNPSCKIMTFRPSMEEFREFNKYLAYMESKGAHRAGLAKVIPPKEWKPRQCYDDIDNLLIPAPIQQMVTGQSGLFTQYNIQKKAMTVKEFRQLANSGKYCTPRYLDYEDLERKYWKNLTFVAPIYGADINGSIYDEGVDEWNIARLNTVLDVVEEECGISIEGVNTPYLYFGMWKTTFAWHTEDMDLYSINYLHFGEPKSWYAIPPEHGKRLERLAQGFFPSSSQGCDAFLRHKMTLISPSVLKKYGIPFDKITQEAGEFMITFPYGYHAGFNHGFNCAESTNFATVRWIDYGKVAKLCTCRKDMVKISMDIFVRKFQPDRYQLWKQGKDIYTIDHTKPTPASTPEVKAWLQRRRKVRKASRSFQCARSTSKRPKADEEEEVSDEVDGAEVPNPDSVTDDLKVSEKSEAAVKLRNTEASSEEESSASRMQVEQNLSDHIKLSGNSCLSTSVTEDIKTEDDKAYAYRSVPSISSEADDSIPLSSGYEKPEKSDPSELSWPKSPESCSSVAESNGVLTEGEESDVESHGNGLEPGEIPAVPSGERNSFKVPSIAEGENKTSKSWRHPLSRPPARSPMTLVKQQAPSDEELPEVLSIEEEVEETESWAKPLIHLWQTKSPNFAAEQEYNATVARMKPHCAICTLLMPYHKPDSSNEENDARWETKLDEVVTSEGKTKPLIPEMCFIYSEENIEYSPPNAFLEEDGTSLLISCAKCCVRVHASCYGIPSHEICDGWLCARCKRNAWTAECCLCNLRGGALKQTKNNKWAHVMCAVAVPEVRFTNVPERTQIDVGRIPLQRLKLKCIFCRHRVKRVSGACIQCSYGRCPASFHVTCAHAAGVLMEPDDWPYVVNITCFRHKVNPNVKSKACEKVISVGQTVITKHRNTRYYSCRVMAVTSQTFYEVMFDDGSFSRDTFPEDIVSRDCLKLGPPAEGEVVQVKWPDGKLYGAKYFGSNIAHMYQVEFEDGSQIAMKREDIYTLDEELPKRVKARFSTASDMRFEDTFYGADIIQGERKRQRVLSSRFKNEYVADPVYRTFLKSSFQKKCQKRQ
Chain of Lysine-specific demethylase 6A (O15550 whole entry): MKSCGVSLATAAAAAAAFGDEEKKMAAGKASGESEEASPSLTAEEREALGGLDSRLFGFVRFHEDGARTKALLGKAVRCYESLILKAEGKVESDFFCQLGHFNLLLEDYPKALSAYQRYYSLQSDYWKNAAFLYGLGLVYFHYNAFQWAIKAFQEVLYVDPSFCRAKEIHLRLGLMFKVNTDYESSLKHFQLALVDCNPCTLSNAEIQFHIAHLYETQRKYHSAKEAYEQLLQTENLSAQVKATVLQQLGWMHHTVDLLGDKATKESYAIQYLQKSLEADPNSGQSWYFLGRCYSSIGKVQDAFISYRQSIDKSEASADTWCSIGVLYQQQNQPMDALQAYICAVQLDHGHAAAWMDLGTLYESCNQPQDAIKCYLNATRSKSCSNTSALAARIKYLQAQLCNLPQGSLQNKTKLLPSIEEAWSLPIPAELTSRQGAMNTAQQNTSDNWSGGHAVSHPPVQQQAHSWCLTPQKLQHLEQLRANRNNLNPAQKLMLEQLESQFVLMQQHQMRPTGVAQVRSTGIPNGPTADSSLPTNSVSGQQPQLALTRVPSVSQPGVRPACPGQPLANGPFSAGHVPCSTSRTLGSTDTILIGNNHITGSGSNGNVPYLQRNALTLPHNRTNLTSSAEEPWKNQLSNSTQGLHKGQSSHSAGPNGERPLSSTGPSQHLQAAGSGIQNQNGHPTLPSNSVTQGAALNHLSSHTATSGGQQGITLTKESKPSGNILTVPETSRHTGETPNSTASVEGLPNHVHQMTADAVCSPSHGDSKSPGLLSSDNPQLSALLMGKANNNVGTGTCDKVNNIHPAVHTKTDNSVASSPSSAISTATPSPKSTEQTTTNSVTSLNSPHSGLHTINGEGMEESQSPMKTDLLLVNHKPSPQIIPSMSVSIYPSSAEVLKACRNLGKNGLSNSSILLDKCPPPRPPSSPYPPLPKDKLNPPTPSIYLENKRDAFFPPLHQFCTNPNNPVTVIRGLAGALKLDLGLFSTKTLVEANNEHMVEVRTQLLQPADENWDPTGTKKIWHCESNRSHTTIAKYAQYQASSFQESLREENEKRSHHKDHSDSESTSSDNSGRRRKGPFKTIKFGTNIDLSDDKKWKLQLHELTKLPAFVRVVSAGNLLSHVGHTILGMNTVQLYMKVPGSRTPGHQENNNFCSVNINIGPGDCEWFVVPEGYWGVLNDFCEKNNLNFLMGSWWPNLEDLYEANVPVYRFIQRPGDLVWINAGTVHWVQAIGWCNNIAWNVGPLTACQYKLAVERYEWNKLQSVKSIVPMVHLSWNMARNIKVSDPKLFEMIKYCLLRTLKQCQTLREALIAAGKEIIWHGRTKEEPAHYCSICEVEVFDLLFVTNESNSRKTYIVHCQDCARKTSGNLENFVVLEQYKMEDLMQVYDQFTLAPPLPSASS

`O=C(O)CCNc1cc(N2CCc3ccccc3CC2)nc(-c2ccccn2)n1`: the IC50 (as a rule, the midpoint of a concentration-inhibition curve) in data set [1] was greater than 100 µM; in data set [2] it was greater than 100 µM; in data set [3] it was 56 µM; in data set [5], 44.3 µM; in data set [6], greater than 100 µM. In addition, in data set [4], the XC50 was greater than 40 µM. Also, the Drug uptake in data set [7] worked out at 1.6 µM.

As for `CCOC(=O)CCNc1cc(N2CCc3ccccc3CC2)nc(-c2cccnc2)n1`, the Activity in data set [8] is listed as 2413 a.u; in data set [10] it was 115933 a.u; in data set [11], 49233 a.u; in data set [12], 64 a.u. Moreover, the Drug metabolism in data set [9] worked out at 17.4 µM.

For `CCOC(=O)CCNc1cc(N2CCc3ccccc3CC2)nc(-c2ccccn2)n1`, the Activity in data set [8] is 476 a.u; in data set [10], 17105 a.u; in data set [11], 50103 a.u; in [12], 15 a.u. The Drug metabolism in [13] came out at 11.8 µM.

For `O=C(O)CCNc1cc(N2CCc3ccccc3CC2)nc(-c2cccnc2)n1`, the XC50 in data set [4] was greater than 40 µM. In addition, in [14], the IC50 is greater than 100 µM. The compound further showed a Drug uptake in data set [7] of 7.8 µM.
